The text below walks through data of patent US11771773B2, “Pharmaceutical preparation containing polyethylene gylcol loxenatide and preparation method thereof” (Jiangsu Hansoh Pharmaceutical Group Co., Ltd., priority 2016, dated 2023).

Assay [1] concerns type 2 diabetes db/db mice. Conditions: injected subcutaneously once every three days.

Regarding polyethylene glycol loxenatide, in assay [1], the body weight result was “reduced”, the “efficacy compared with Exenatide injected subcutaneously twice a day” value is reported as “comparable to that of Exenatide”, the fasting blood glucose result is reported as “significantly reduced” and the glucose tolerance result was “improved”. In assay [1], the random blood glucose entry is listed as “significantly reduced” and the serum fructosamine levels entry is “significantly reduced”. In addition, the glucose-dependent insulinotropic function result with normal rats is listed as “Good glucose-dependent insulinotropic function”.
